We go through 17 molecules from ChEMBL document CHEMBL4118062, “Novel NO-releasing plumbagin derivatives: Design, synthesis and evaluation of antiproliferative activity” (Eur J Med Chem, 2017).

The subject of data set [1] is MDA-MB-231. Put plainly: Cytotoxicity against human MDA-MB-231 cells assessed as growth inhibition after 72 hrs by MTT assay. As to conditions: MDA-MB-231, 72 h. The class given is functional, cell-based. A general note: Tetrazolium dyes change colour on reduction, which living cells bring about.
The test system of data set [2] is HepG2. Nature of the data set: Cytotoxicity against human HepG2 cells assessed as growth inhibition at 10 uM after 72 hrs by MTT assay relative to control. It is filed as functional. As to conditions: HepG2, 72 h, read-out: GI.
The nature of data set [3]: Drug metabolism in human MDA-MB-231 cells assessed as nitric oxide release at 30 uM after 0.5 to 30 hrs by Griess assay. It is filed as ADME, cell-based. As to conditions: mda-mb-231, 30 µM.
A short description of data set [4]: Selectivity ratio of IC50 for human HepG2 cells to IC50 for human MDA-MB-231 cells. The class given is functional.
Data set [5] has as its system MDA-MB-231. Nature of the data set: Cytotoxicity against human MDA-MB-231 cells assessed as growth inhibition at 10 uM after 72 hrs by MTT assay relative to control. The conditions noted are these: MDA-MB-231, 72 h, read-out: GI. The class given is functional.
The nature of data set [6]: Selectivity ratio of IC50 for human A549 cells to IC50 for human MDA-MB-231 cells. The class given is functional.
Data set [7] has as its system HepG2. Nature of the data set: Cytotoxicity against human HepG2 cells assessed as growth inhibition after 72 hrs by MTT assay. It is filed as functional, cell-based. The conditions noted are these: HepG2, 72 h.
Another data set relates to A549. Nature of the data set: Cytotoxicity against human A549 cells assessed as growth inhibition after 72 hrs by MTT assay. The class given is functional, cell-based. The conditions noted are these: A549, 72 h.
Data set [8] has as its system HepG2. Put plainly: Cytotoxicity against human HepG2 cells assessed as growth inhibition at 40 uM after 72 hrs by MTT assay relative to control. It is filed as functional. As to conditions: HepG2, 72 h, read-out: GI.
In data set [9] the test system is MDA-MB-231. Put plainly: Cytotoxicity against human MDA-MB-231 cells assessed as growth inhibition at 40 uM after 72 hrs by MTT assay relative to control. As to conditions: MDA-MB-231, 72 h, read-out: GI. It is filed as functional.
Data set [10] in a line: Chemical stability in PBS at pH 8 at 1000 uM after 24 hrs by HPLC method. As to conditions: buffer, pH 8, 24 h. The class given is physicochemical.
Data set [11] is described as follows: Chemical stability in PBS at pH 6 at 1000 uM after 3 to 24 hrs by HPLC method. The class given is physicochemical. As to conditions: buffer, pH 6, 1000 µM.
The nature of data set [12]: Chemical stability in PBS at pH 7.4 assessed as parent compound remaining at 1000 uM after 24 hrs by HPLC method. As to conditions: read-out: Stability. It is filed as physicochemical.
For data set [13], the system named is MDA-MB-231. Nature of the data set: Cytotoxicity against human MDA-MB-231 cells assessed as growth inhibition at 20 uM after 72 hrs by MTT assay relative to control. It is filed as functional. The conditions noted are these: MDA-MB-231, 72 h, read-out: GI.
Data set [14] relates to HepG2. Nature of the data set: Cytotoxicity against human HepG2 cells assessed as growth inhibition at 20 uM after 72 hrs by MTT assay relative to control. The conditions noted are these: HepG2, 72 h, read-out: GI. The class given is functional.
Data set [15] can be described thus: Drug degradation in PBS at pH 7.4 at 1000 uM after 24 hrs by HPLC method. The class given is physicochemical. As to conditions: read-out: Drug degradation.
Data set [16] in a line: Drug degradation in PBS at pH 8 at 1000 uM after 24 hrs by HPLC method. The class given is physicochemical. The conditions noted are these: read-out: Drug degradation.

As a reminder, the IC50 is the midpoint of a concentration-inhibition curve.

Regarding `CC1=C(CCC(=O)OCC(C)COc2no[n+]([O-])c2S(=O)(=O)c2ccccc2)C(=O)c2c(O)cccc2C1=O` (centres undefined), the IC50 in the data set with MDA-MB-231 [1] is 2.67 µM; in the data set on HepG2 [7], 6.69 µM; with A549, 18.2 µM. Further, the inhibition of growth at 10 µM was determined as 73.4% with HepG2 [2] and 97.4% in the data set on MDA-MB-231 [5]. Besides, the Drug metabolism entry in data set [3] is on record as “Metabolite_Detected”. The “Ratio IC50” value was 2.5 in data set [4] and 6.8 in data set [6].

For `CC1=C(CCCC(=O)OCCOc2no[n+]([O-])c2S(=O)(=O)c2ccccc2)C(=O)c2c(O)cccc2C1=O`, the IC50 in the data set on MDA-MB-231 [1] turned out to be 1.52 µM; with HepG2 [7] it was 4.16 µM; with A549, 10.2 µM. In addition, the values for the inhibition of growth at 10 µM with HepG2 [2] and with MDA-MB-231 [5] were 95.1% and 97.9%, respectively. In addition, the “Ratio IC50” value came to 2.7 in [4] and 6.7 in [6].

Turning to `CC1=C(CCC(=O)OCCCOc2no[n+]([O-])c2S(=O)(=O)c2ccccc2)C(=O)c2c(O)cccc2C1=O`, the IC50 is 4.31 µM in the data set with MDA-MB-231 [1], 6.79 µM in the data set with HepG2 [7] and above 20 µM in the data set with A549. In addition, the inhibition of growth at 10 µM stood at 95.1% with HepG2 [2] and 96.8% with MDA-MB-231 [5]. The Drug metabolism result in data set [3] is listed as “Metabolite_Detected”. Besides, the figures for the “Ratio IC50” value in [4] and in data set [6] were 1.6 and above 4.7, respectively.

As for `CC1=C(CC(=O)O)C(=O)c2c(O)cccc2C1=O`, the inhibition of growth at 40 µM in the data set on HepG2 [8] was determined as 11%; in the data set on MDA-MB-231 [9] it was 2.4%.

For `CC1=C(CCC(=O)OCCCCOc2no[n+]([O-])c2S(=O)(=O)c2ccccc2)C(=O)c2c(O)cccc2C1=O`, the IC50 in the data set on MDA-MB-231 [1] worked out at 1.24 µM; with HepG2 [7], 3.33 µM; with A549, 8.31 µM. In addition, the figures for the inhibition of growth at 10 µM in the data set on HepG2 [2] and in the data set with MDA-MB-231 [5] were 95.4% and 97.6%, respectively. In addition, in data set [3], the Drug metabolism entry was “Metabolite_Detected”. Further, the “Ratio IC50” value in data set [4] was 2.7; in [6], 6.7.

With `CC1=C(C(C)CC(=O)OCC(C)COc2no[n+]([O-])c2S(=O)(=O)c2ccccc2)C(=O)c2c(O)cccc2C1=O` (centres undefined), the concentration for half-maximal inhibition (IC50) in the data set with MDA-MB-231 [1] came out at 2.11 µM; with HepG2 [7] it was 3.74 µM; in the data set on A549 it was 12.8 µM. The figures for the inhibition of growth at 10 µM in the data set on HepG2 [2] and in the data set on MDA-MB-231 [5] were 91.5% and 94.4%, respectively. In data set [3], the Drug metabolism result is on record as “Metabolite_Detected”. Further, the “Ratio IC50” value in data set [4] stood at 1.8; in [6] it was 6.1.

`CC1=C(CCC(=O)OCCOc2no[n+]([O-])c2S(=O)(=O)c2ccccc2)C(=O)c2c(O)cccc2C1=O`: the half-maximal inhibitory concentration (IC50) was 1.21 µM in the data set on MDA-MB-231 [1], 2.98 µM in the data set with HepG2 [7] and 9.31 µM in the data set on A549. For the same molecule, the Stability result in [10] and in data set [11] was “Stable” in each case. Besides, the values for the inhibition of growth at 10 µM in the data set with HepG2 [2] and with MDA-MB-231 [5] were 95.7% and 97.6%, respectively. Further, the remaining at 24 h, 1000 µM in [12] was above 98%. The “Ratio IC50” value amounted to 2.5 in [4] and 7.7 in data set [6].

For the molecule `CC(=O)c1cc2c(o1)C(=O)c1ccccc1C2=O` [NAPABUCASIN], the IC50 in the data set on MDA-MB-231 [1] was 0.34 µM; in the data set with HepG2 [7] it was 0.66 µM; in the data set with A549 it was 0.74 µM. The “Ratio IC50” value in data set [4] is given as 1.8; in data set [6], 2.2.

For the molecule `CC1=C(CCCC(=O)O)C(=O)c2c(O)cccc2C1=O`, the inhibition of growth at 20 µM in the data set on MDA-MB-231 [13] was found to be 6.1%; in the data set with HepG2 [14], 23.2%.

Regarding `CC1=C(C(C)CC(=O)OCCCOc2no[n+]([O-])c2S(=O)(=O)c2ccccc2)C(=O)c2c(O)cccc2C1=O` (centres undefined), the 50% inhibitory concentration (IC50) was found to be 2.42 µM with MDA-MB-231 [1], 4.32 µM in the data set on HepG2 [7] and 13.9 µM in the data set with A549. In addition, the values for the inhibition of growth at 10 µM in the data set on HepG2 [2] and in the data set on MDA-MB-231 [5] were 92.7% and 95.3%, respectively. Besides, the Drug metabolism entry in data set [3] is given as “Metabolite_Detected”. The “Ratio IC50” value in data set [4] is 1.8; in data set [6], 5.8.

Turning to `CC1=C(C(C)CC(=O)OCCCCOc2no[n+]([O-])c2S(=O)(=O)c2ccccc2)C(=O)c2c(O)cccc2C1=O` (centres undefined), the half-inhibitory concentration (IC50) in the data set on MDA-MB-231 [1] was 1.98 µM; in the data set on HepG2 [7], 4.24 µM; in the data set on A549, 19.6 µM. The inhibition of growth at 10 µM in the data set on HepG2 [2] came out at 89.2%; with MDA-MB-231 [5], 92.7%. In addition, the “Ratio IC50” value in data set [4] is 2.1; in data set [6], 10.

For the molecule `CC1=CC(=O)c2c(O)cccc2C1=O` [PLUMBAGIN], the IC50 in the data set with MDA-MB-231 [1] was 14.2 µM; with HepG2 [7] it was 10.7 µM; with A549 it was 12.4 µM. The degraded at 24 h, 1000 µM in data set [15] and in [16] was above 95% in each case. Moreover, the inhibition of growth at 10 µM with HepG2 [2] was determined as 41%; in the data set on MDA-MB-231 [5], 32.8%. For the same molecule, the Stability result in data set [11] was “Stable”. Moreover, the “Ratio IC50” value is recorded as 0.7 in data set [4] and 0.9 in data set [6].

Turning to `CC1=C(CCC(=O)O)C(=O)c2c(O)cccc2C1=O`, the inhibition of growth at 40 µM in the data set on HepG2 [8] turned out to be 20.3%; in the data set on MDA-MB-231 [9], 5%.

On to `CC1=C(CC(=O)OCCCCOc2no[n+]([O-])c2S(=O)(=O)c2ccccc2)C(=O)c2c(O)cccc2C1=O`, for which the concentration for half-maximal inhibition (IC50) in the data set with MDA-MB-231 [1] was 5.2 µM; with HepG2 [7] it was 7.72 µM; with A549, above 20 µM. The inhibition of growth at 10 µM in the data set on HepG2 [2] stood at 87.2%; in the data set on MDA-MB-231 [5] it was 96.3%. Also, the Drug metabolism result in data set [3] is listed as “Metabolite_Detected”. For the same molecule, the “Ratio IC50” value in data set [4] is listed as 1.5; in data set [6] it was above 3.8.

As to `CC1=C(CC(=O)OCCOc2no[n+]([O-])c2S(=O)(=O)c2ccccc2)C(=O)c2c(O)cccc2C1=O`, the IC50 worked out at 3.27 µM with MDA-MB-231 [1], 6.11 µM in the data set with HepG2 [7] and 18.6 µM in the data set on A549. Moreover, the values for the inhibition of growth at 10 µM with HepG2 [2] and with MDA-MB-231 [5] were 93.3% and 97.3%, respectively. Further, the “Ratio IC50” value in [4] came to 1.9.

As to `CC1=C(CC(=O)OCC(C)COc2no[n+]([O-])c2S(=O)(=O)c2ccccc2)C(=O)c2c(O)cccc2C1=O` (centres undefined), the IC50 was 1.51 µM in the data set with MDA-MB-231 [1], 3 µM with HepG2 [7] and 5.83 µM with A549. Further, the inhibition of growth at 10 µM in the data set on HepG2 [2] came to 96.6%; in the data set with MDA-MB-231 [5] it was 97.3%. The Drug metabolism entry in data set [3] is “Metabolite_Detected”. Besides, the “Ratio IC50” value in data set [4] is listed as 2; in data set [6], 3.9.

`CC1=C(CC(=O)OCCCOc2no[n+]([O-])c2S(=O)(=O)c2ccccc2)C(=O)c2c(O)cccc2C1=O`: the half-maximal inhibitory concentration (IC50) was found to be 1.76 µM with MDA-MB-231 [1], 4.41 µM in the data set with HepG2 [7] and 7 µM in the data set on A549. Further, the inhibition of growth at 10 µM was 97.2% in the data set on HepG2 [2] and 97.7% with MDA-MB-231 [5]. The “Ratio IC50” value in data set [4] was 2.5; in data set [6], 4.
